Consider seven molecules from patent US20120276070A1, “Induced Pluripotent Stem Cells and Related Methods” (VITRO DIAGNOSITICS, INC., priority 2009, published 2012).

The subject of data set [1] is POU5F1 (Oct3/4). Description: POU5F1 (Oct3/4) expression after adding small molecules to the adult stem cell culture medium. It is filed as cell-based.
For data set [2], the system named is native human MSC. Description: Puromycin dose-response / selection: killing of native, non-transfected human MSC. It is filed as cell-based. The settings on record: 10 μg/ml puromycin in medium. The procedure: Human mesenchymal stem cells (Vitro Diagnostics, Inc., catalog number SC00A1) were cultured at 7500/cm^2 in T25 flasks (Greiner Bio-One catalog number 690-190) following coating at 2 μg/cm^2 with poly-L-lysine (Sigma Catalog number P1399) using low serum complete MSC cell culture medium (Vitro Diagnostics, Inc., catalog number SC00B1). Cultures were maintained here and throughout this study in a 5% O2, 5% CO2, balance N2 gas environment in a humidified chamber maintained at 37° C. Following two days of continuous culture and at about 40% confluence, the cultures were exposed to 1/15 dilution of the POU5-F1 pseudovirus stock in low serum medium containing 5 μg/ml polybrene (Sigma catalog number H9268). Following 10 hours exposure to the pseudovirus particles, the cultures were washed twice with PBS and cultured in low serum medium (Vitro SC00B1). Selection of stable transfectants began 16 hours later using 3 to 10 μg/ml puromycin (Sigma catalog number P7255) which was a sufficient concentration to kill native, non-transfected human MSC. Single colony clones were established by limited dilution cloning in 96 well plates (Greiner Bio-One, catalog number 655-160) using low serum MSC medium (Vitro Diagnostics, Inc., catalog number SC00B1) containing 10 μg/ml puromycin. […]

Where [3] appears, read: added to the medium at 1 to 2 mM.

No end group written: not given here.

As to “gonadotropin releasing hormone (QHWSYGLRPG; ends and bridges not checked; UniProt P01148 24-33, looked up) [GnRH]”, the “POU5F1 (Oct3/4) expression” value in data set [1] (added to the medium at 75 pg/ml) is reported as “increased POU5F1 (Oct3/4) expression”.

As for `COc1ccc(C[C@H](N)C(=O)N[C@H]2[C@@H](O)[C@H](n3cnc4c(N(C)C)ncnc43)O[C@@H]2CO)cc1` [puromycin], in data set [2], the “effect on wild type MSCs” value is “lethal”.

With `CCCC(CCC)C(=O)O` [valproic acid], the “POU5F1 (Oct3/4) expression” value in data set [1] (setting [3]) is “increased POU5F1 (Oct3/4) expression”.

In the case of `C[C@]12CCC(=O)C=C1CC[C@@H]1[C@@H]2[C@@H](O)C[C@@]2(C)[C@H]1CC[C@]2(O)C(=O)CO` [Hydrocortisone, hydrocortisone], the “POU5F1 (Oct3/4) expression” value in data set [1] (added to the medium, preferably at 80 to 110 nM) is “increased POU5F1 (Oct3/4) expression”.

For `O=C1O[C@H]([C@@H](O)CO)C(O)=C1O` [Vitamin C, ascorbic acid], the “POU5F1 (Oct3/4) expression” value in data set [1] (added to the medium at 60 μM) is “increased POU5F1 (Oct3/4) expression”.

As for `Nc1ncn([C@@H]2O[C@H](CO)[C@@H](O)[C@H]2O)c(=O)n1` [5-azacytidine], the “POU5F1 (Oct3/4) expression” value in data set [1] (added to the medium at 0.5 mM, transient periods </=48 hours) is “increased POU5F1 (Oct3/4) expression”.

Regarding `CCCC(=O)[O-].[Na+]` [sodium butyrate], in data set [1] (setting [3]), the “POU5F1 (Oct3/4) expression” value is “increased POU5F1 (Oct3/4) expression”.
